Measurements as given in the NIST ThermoML archive (doi:10.1016/j.jct.2014.01.006).
Several values for one entry are separate records, joined by “and”; a condition that tells them apart may be missing. Equal values may be shown once.

Experiment: molar heat capacity at saturation pressure

c1ccc(-c2cccc3ccccc23)cc1 [1-phenylnaphthalene]
Conditions | molar heat capacity
57.98 K, Crystal, Vacuum adiabatic calorimetry | 61.8 J/K/mol
60 K, Crystal, Vacuum adiabatic calorimetry | 63.39 J/K/mol
61.92 K, Crystal, Vacuum adiabatic calorimetry | 65.08 J/K/mol
63.69 K, Crystal, Vacuum adiabatic calorimetry | 66.18 J/K/mol
66.86 K, Crystal, Vacuum adiabatic calorimetry | 68.59 J/K/mol
70 K, Crystal, Vacuum adiabatic calorimetry | 70.93 J/K/mol
70.04 K, Crystal, Vacuum adiabatic calorimetry | 71 J/K/mol
71.83 K, Crystal, Vacuum adiabatic calorimetry | 72.22 J/K/mol
76.82 K, Crystal, Vacuum adiabatic calorimetry | 75.66 J/K/mol
77.08 K, Crystal, Vacuum adiabatic calorimetry | 75.91 J/K/mol
80 K, Crystal, Vacuum adiabatic calorimetry | 77.87 J/K/mol
81.77 K, Crystal, Vacuum adiabatic calorimetry | 79.16 J/K/mol
84.85 K, Crystal, Vacuum adiabatic calorimetry | 81.07 J/K/mol
86.7 K, Crystal, Vacuum adiabatic calorimetry | 82.3 J/K/mol
90 K, Crystal, Vacuum adiabatic calorimetry | 84.45 J/K/mol
92.7 K, Glass, Vacuum adiabatic calorimetry | 86.97 J/K/mol
93.5 K, Crystal, Vacuum adiabatic calorimetry | 86.69 J/K/mol
100 K, Crystal, Vacuum adiabatic calorimetry | 90.82 J/K/mol
102.16 K, Glass, Vacuum adiabatic calorimetry | 93.03 J/K/mol
102.86 K, Crystal, Vacuum adiabatic calorimetry | 92.63 J/K/mol
111.98 K, Glass, Vacuum adiabatic calorimetry | 99.33 J/K/mol
112.57 K, Crystal, Vacuum adiabatic calorimetry | 98.86 J/K/mol
120 K, Crystal, Vacuum adiabatic calorimetry | 103.63 J/K/mol
122.36 K, Crystal, Vacuum adiabatic calorimetry | 105.15 J/K/mol
122.48 K, Glass, Vacuum adiabatic calorimetry | 106.16 J/K/mol
132.22 K, Crystal, Vacuum adiabatic calorimetry | 111.61 J/K/mol
133.24 K, Glass, Vacuum adiabatic calorimetry | 113.28 J/K/mol
140 K, Crystal, Vacuum adiabatic calorimetry | 116.81 J/K/mol
142.62 K, Crystal, Vacuum adiabatic calorimetry | 118.58 J/K/mol
144.86 K, Glass, Vacuum adiabatic calorimetry | 121.24 J/K/mol
153.97 K, Crystal, Vacuum adiabatic calorimetry | 126.35 J/K/mol
158.22 K, Glass, Vacuum adiabatic calorimetry | 130.67 J/K/mol
160 K, Crystal, Vacuum adiabatic calorimetry | 130.74 J/K/mol
165.78 K, Crystal, Vacuum adiabatic calorimetry | 135.02 J/K/mol
172.31 K, Glass, Vacuum adiabatic calorimetry | 140.99 J/K/mol
177.53 K, Crystal, Vacuum adiabatic calorimetry | 143.52 J/K/mol
180 K, Crystal, Vacuum adiabatic calorimetry | 145.34 J/K/mol
183.8 K, Crystal, Vacuum adiabatic calorimetry | 148.26 J/K/mol
184.4 K, Glass, Vacuum adiabatic calorimetry | 150.13 J/K/mol
189.34 K, Crystal, Vacuum adiabatic calorimetry | 152.49 J/K/mol
193.62 K, Glass, Vacuum adiabatic calorimetry | 157.14 J/K/mol
195.08 K, Crystal, Vacuum adiabatic calorimetry | 157.04 J/K/mol
198.88 K, Glass, Vacuum adiabatic calorimetry | 161.79 J/K/mol
200 K, Crystal, Vacuum adiabatic calorimetry | 160.73 J/K/mol
201.24 K, Crystal, Vacuum adiabatic calorimetry | 161.76 J/K/mol
201.34 K, Glass, Vacuum adiabatic calorimetry | 162.43 J/K/mol
206.16 K, Crystal, Vacuum adiabatic calorimetry | 165.72 J/K/mol
212.82 K, Glass, Vacuum adiabatic calorimetry | 180.93 J/K/mol
217.01 K, Crystal, Vacuum adiabatic calorimetry | 174.74 J/K/mol
220 K, Crystal, Vacuum adiabatic calorimetry | 177.08 J/K/mol
224.64 K, Liquid, Vacuum adiabatic calorimetry | 274.63 J/K/mol
227.57 K, Crystal, Vacuum adiabatic calorimetry | 183.38 J/K/mol
230.27 K, Liquid, Vacuum adiabatic calorimetry | 276.92 J/K/mol
233.28 K, Liquid, Vacuum adiabatic calorimetry | 278.09 J/K/mol
238.35 K, Crystal, Vacuum adiabatic calorimetry | 192.45 J/K/mol
239.4 K, Liquid, Vacuum adiabatic calorimetry | 280.79 J/K/mol
240 K, Crystal, Vacuum adiabatic calorimetry | 193.69 J/K/mol
242.59 K, Liquid, Vacuum adiabatic calorimetry | 282.18 J/K/mol
249.84 K, Crystal, Vacuum adiabatic calorimetry | 202.22 J/K/mol
252.38 K, Liquid, Vacuum adiabatic calorimetry | 286.68 J/K/mol
252.84 K, Liquid, Vacuum adiabatic calorimetry | 287 J/K/mol
260 K, Crystal, Vacuum adiabatic calorimetry | 210.67 J/K/mol
261.66 K, Crystal, Vacuum adiabatic calorimetry | 212.63 J/K/mol
273.41 K, Crystal, Vacuum adiabatic calorimetry | 223.08 J/K/mol
280 K, Crystal, Vacuum adiabatic calorimetry | 228.03 J/K/mol
284.54 K, Liquid, Vacuum adiabatic calorimetry | 303.16 J/K/mol
285.16 K, Crystal, Vacuum adiabatic calorimetry | 237.05 J/K/mol
293.3 K, Liquid, Vacuum adiabatic calorimetry | 308.04 J/K/mol
297.47 K, Crystal, Vacuum adiabatic calorimetry | 243.76 J/K/mol
297.47 K, Liquid, Vacuum adiabatic calorimetry | 310.36 J/K/mol
298.15 K, Liquid, Vacuum adiabatic calorimetry | 310.74 J/K/mol
300 K, Liquid, Vacuum adiabatic calorimetry | 311.8 J/K/mol
304.21 K, Liquid, Vacuum adiabatic calorimetry | 314.19 J/K/mol
305.11 K, Liquid, Vacuum adiabatic calorimetry | 314.67 J/K/mol
305.83 K, Liquid, Vacuum adiabatic calorimetry | 315.13 J/K/mol
306.22 K, Liquid, Vacuum adiabatic calorimetry | 315.36 J/K/mol
314.2 K, Liquid, Vacuum adiabatic calorimetry | 320 J/K/mol
320 K, Liquid, Vacuum adiabatic calorimetry | 323.37 J/K/mol
321.38 K, Liquid, Vacuum adiabatic calorimetry | 324.18 J/K/mol
337.19 K, Liquid, Vacuum adiabatic calorimetry | 333.49 J/K/mol
340 K, Liquid, Vacuum adiabatic calorimetry | 335.17 J/K/mol
352.74 K, Liquid, Vacuum adiabatic calorimetry | 342.77 J/K/mol
360 K, Liquid, Vacuum adiabatic calorimetry | 347.09 J/K/mol
368.54 K, Liquid, Vacuum adiabatic calorimetry | 352.16 J/K/mol
380 K, Liquid, Vacuum adiabatic calorimetry | 359 J/K/mol
384.76 K, Liquid, Vacuum adiabatic calorimetry | 361.84 J/K/mol
400 K, Liquid, Vacuum adiabatic calorimetry | 370.85 J/K/mol
400.59 K, Liquid, Vacuum adiabatic calorimetry | 371.18 J/K/mol
410 K, Liquid, Small sample (50 mg) DSC | 374.57 J/K/mol and 371.91 J/K/mol and 371.07 J/K/mol
415.69 K, Liquid, Vacuum adiabatic calorimetry | 380.05 J/K/mol
420 K, Liquid, Vacuum adiabatic calorimetry | 382.51 J/K/mol
428.68 K, Liquid, Vacuum adiabatic calorimetry | 387.41 J/K/mol
430 K, Liquid, Small sample (50 mg) DSC | 384.13 J/K/mol and 385.46 J/K/mol and 382.55 J/K/mol
439.15 K, Liquid, Vacuum adiabatic calorimetry | 393.4 J/K/mol
440 K, Liquid, Vacuum adiabatic calorimetry | 393.64 J/K/mol
450 K, Liquid, Small sample (50 mg) DSC | 395.1 J/K/mol and 393.86 J/K/mol and 402.09 J/K/mol
460 K, Liquid, Vacuum adiabatic calorimetry | 401.95 J/K/mol
470 K, Liquid, Small sample (50 mg) DSC | 403.25 J/K/mol and 404.83 J/K/mol and 407.16 J/K/mol
480 K, Liquid, Vacuum adiabatic calorimetry | 412.21 J/K/mol
490 K, Liquid, Small sample (50 mg) DSC | 411.48 J/K/mol and 416.14 J/K/mol and 419.05 J/K/mol
500 K, Liquid, Vacuum adiabatic calorimetry | 422.42 J/K/mol
510 K, Liquid, Small sample (50 mg) DSC | 426.2 J/K/mol and 428.36 J/K/mol and 429.11 J/K/mol
520 K, Liquid, Vacuum adiabatic calorimetry | 432.63 J/K/mol
530 K, Liquid, Small sample (50 mg) DSC | 435.1 J/K/mol and 439.09 J/K/mol and 438.67 J/K/mol
540 K, Liquid, Vacuum adiabatic calorimetry | 442.84 J/K/mol
550 K, Liquid, Small sample (50 mg) DSC | 444.66 J/K/mol and 449.81 J/K/mol and 447.07 J/K/mol
560 K, Liquid, Vacuum adiabatic calorimetry | 453.01 J/K/mol
570 K, Liquid, Small sample (50 mg) DSC | 452.81 J/K/mol and 460.62 J/K/mol and 460.45 J/K/mol
580 K, Liquid, Vacuum adiabatic calorimetry | 463.22 J/K/mol
590 K, Liquid, Small sample (50 mg) DSC | 466.28 J/K/mol and 469.1 J/K/mol and 471.1 J/K/mol
600 K, Liquid, Vacuum adiabatic calorimetry | 473.43 J/K/mol
610 K, Liquid, Small sample (50 mg) DSC | 480.83 J/K/mol and 476.5 J/K/mol and 479.25 J/K/mol
620 K, Liquid, Vacuum adiabatic calorimetry | 483.64 J/K/mol
640 K, Liquid, Vacuum adiabatic calorimetry | 493.83 J/K/mol
650 K, Liquid, Vacuum adiabatic calorimetry | 498.91 J/K/mol
